Laboratory results taken from publication PMC6382874, “Succinylation-dependent mitochondrial translocation of PKM2 promotes cell survival in response to nutritional stress” (Cell Death & Disease, 2019).
Where two headings read alike, the source gives them in different places.

Assays:
MCF7 cells = assay: cell viability test, MCF7; assay type: cell-based; conditions: cell viability, 48 h, read-out: IC50 (MCF7)
Description: (§1) We assessed the anti-tumor effects of compound 8 by evaluation of cancer cell viability. Compound 8 reduced cell viability with an IC50 of about 5 µM in MTT reduction assays in HCT116, MCF7, and H1299 cells (Table 2). […] To determine whether cancer cell death brought about by compound 8 is PKM2 dependent, PKM2 was knocked down in HCT116 cells using two different shRNA sequences that specifically targeted exon 10 without interfering with PKM1 expression. Compound 8 is an inhibitor which causes a loss of function of PKM2. If PKM2 is a specially targeted by compound 8, its knockdown should render cells more vulnerable to compound 8-mediated PKM2 inhibition since shRNA and compound 8 work synergistically by reducing the intracellular drug target concentration.
(§2) Cells were seeded in 96-well plates at 5000 cells/well in DMEM media overnight. Cells were treated with different concentrations of test compound for 48 h at 37 °C in 5% CO2. Cell viability was assayed with the MTS assay (Promega) and trypan blue staining according to the manufacturer’s instructions.

HCT116 cells = assay: ATP measurement, Cell Titer-Glo, HCT116 cells; assay type: cell-based, human; conditions: 10 or 20 μM, 8 h
Description: HCT116 cells were cultured in DMEM containing 10% FBS and seeded into six-well plates. Twenty-four hour after seeding, the medium was changed to DMEM containing 10 or 20 μM compound 8 for 8 h. ATP levels were measured using the Cell Titer-Glo Luminescent Cell Viability Assay (Promega).

VDAC3 = VDAC3 protein level (western blot) in HCT116 cells; assay type: cell-based, human; conditions: 10 or 20 µM, 8 h
Source text: HCT116 cell lysates were subject to immunoprecipitation with control IgG and anti-VDAC3 antibodies. d, e In vitro binding assay of purified His-tagged-PKM2 and GST-tagged-VDAC3. f K433E enhanced the interaction of PKM2 and VDAC3. Stagged-WT PKM2, a succinylation mimic K433E and a succinylation null mutant K433R and flag-VDAC3 were co-transfected into HCT116 cells for Stag bead pull down that specially pulls down Stagged proteins. g Glucose starvation enhanced the interaction of PKM2 and VDAC3. […]
Fig. 6 Compound 8 blocks PKM2 mitochondrial translocation under nutritional stress and inhibits tumor growth in vivo. a Compound 8 blocks glucose starvation induced PKM2 mitochondrial translocation. […] HCT116 cells were transfected with HA-tagged PKM2, cells were harvested and subjected to stag pull down after 8 h 20 µM compound 8 treatment. c Compound 8 induces VDAC3 for degradation. cells were harvested and evaluated VDAC3 protein levels after 8 h 10 or 20 µM compound 8 treatment. d, e Compound 8 caused a decrease in the rate of NADH oxidation. […] NAD/NADH ratios in HCT116 cell lysates were evaluated by LC–MS. f Compound 8 inhibited ATP production in HCT116 cells. g The tumor volume (n = 7) of HCT116 xenografts from mice with intraperitoneal injection of compound 8 and vehicle control […]

H1299 cells = assay: cell viability test, H1299; assay type: cell-based; conditions: cell viability, 48 h, read-out: IC50 (H1299)
Description: as §1, §2

PKM2 = PKM2 (Homo sapiens, UniProt P14618); assay: pyruvate kinase activity in lysate of treated HCT116 cells; assay type: cell-based; parameters: endogenous in cells; host or cells: HCT116; conditions: 6 h treatment, Fig. 5c
Chain of PKM2 (P14618 2-531 limits assumed): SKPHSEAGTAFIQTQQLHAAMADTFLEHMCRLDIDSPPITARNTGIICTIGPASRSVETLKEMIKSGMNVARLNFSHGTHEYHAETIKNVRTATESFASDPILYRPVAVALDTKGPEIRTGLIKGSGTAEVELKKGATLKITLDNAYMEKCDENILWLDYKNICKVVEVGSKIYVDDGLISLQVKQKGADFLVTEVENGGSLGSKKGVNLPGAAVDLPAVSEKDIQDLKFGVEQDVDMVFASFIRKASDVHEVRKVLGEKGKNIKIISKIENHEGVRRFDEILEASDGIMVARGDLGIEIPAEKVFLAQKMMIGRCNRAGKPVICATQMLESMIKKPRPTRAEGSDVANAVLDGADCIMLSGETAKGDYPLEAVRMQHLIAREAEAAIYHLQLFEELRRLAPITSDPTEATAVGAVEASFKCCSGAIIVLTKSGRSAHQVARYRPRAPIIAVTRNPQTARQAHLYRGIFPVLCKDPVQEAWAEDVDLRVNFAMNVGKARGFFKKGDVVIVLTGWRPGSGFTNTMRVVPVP
Description: HCT116 cells were seeded overnight into 6-well plates at 1,000,000 cells/well in DMEM media. Test compounds were added for 6 h. Cells were washed two times with ice-cold phosphate-buffered saline (PBS) and lysed in lysis buffer. Lysate was analyzed for pyruvate kinase activity as described above.

HCT116 xenografts = assay: HCT116 xenograft tumor growth in nude mice; assay type: in vivo, nude mice (BALB/C); conditions: 15mg/kg, intraperitoneal, once every two days
Description: All animal procedures were performed in accordance with guidelines approved by the Animal Experimentation Ethics Committee of Peking University. Female nude mice (BALB/C, 4–6 weeks old) were injected with 2.0 × 10^6 HCT116 cells subcutaneously in the armpit. Approximately, 10 days later, pairs of mice (N = 7) were injected with compound 8 or vehicle control. Intraperitoneal injection was performed in the mouse. The animals were injected once every two days. Tumor measurements were performed once every 2 days. Tumor volume was calculated using the following equation: V = L(S2)π/6, where L is the longer and S is the shorter of the two tumor dimensions.

CCCN(CCC)P(N)(=O)OCC1=CC(=O)c2ccccc2C1=O (stereo not drawn) [Compound 8]
IC50 (MCF7 cells; Homo sapiens, MCF7, 48 h): ~5 µM
IC50 (MCF7 cells): 5.4 ± 1.14 µM
cellular ATP production (HCT116 cells): inhibited cellular ATP production in a concentration-dependent manner
VDAC3 protein level (VDAC3): caused VDAC3 degradation
IC50 (H1299 cells; Homo sapiens, NCI-H1299, 48 h): ~5 µM
IC50 (H1299 cells): 4.75 ± 1.15 µM
inhibition of PKM2 activity in cancer cells (PKM2): inhibits PKM2 activity in HCT116 cells in a dose dependent manner
inhibition of PKM2 activity in cancer cells (PKM2; listed as compound 8): dose dependent
colon cancer xenograft growth (tumor volume) (HCT116 xenografts): significantly reduced
